Reference: PubChem BioAssay AID330 (DTP/NCI, 2004)
Values joined by “and” are separate entries in the source; they are usually repeats but may differ in a detail not shown here. Equal entries are not always repeated. Inconclusive results and toxic doses are left out. Rule for the calls: active = survival T/C of 150% or more; inactive = T/C below 125% in these data.

Test system: P388 leukemia ip, CD2F1 mice, survival T/C
Assay: NCI In Vivo Anticancer Drug Screen. Data for tumor model P388 Leukemia (intraperitoneal) in CD2F1 (CDF1) mice
Conditions: endpoint: median survival time, higher = longer survival
Outline: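 Mice carrying the transplanted tumor received test compound or vehicle. Survival was recorded in each group, and the value is the treated-group measurement divided by that of the vehicle-treated control group.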

[1] = dose: 12.5 mg/kg/injection, schedule: Q01DX005 (ip), vehicle: Klucel (hydroxypropylcellulose) (HPC)
[2] = dose: 50.0 mg/kg/injection, schedule: Q01DX005 (ip), vehicle: Klucel (hydroxypropylcellulose) (HPC)
[3] = dose: 60.0 mg/kg/injection, schedule: Q01DX005 (ip), vehicle: saline with Tween-80
[4] = dose: 120.0 mg/kg/injection, schedule: Q01DX005 (ip), vehicle: saline with Tween-80
[5] = dose: 100.0 mg/kg/injection, schedule: Q01DX005 (ip), vehicle: Klucel (hydroxypropylcellulose) (HPC)
[6] = dose: 50.0 mg/kg/injection, schedule: Q01DX005 (ip), vehicle: saline with Tween-80
[7] = dose: 100.0 mg/kg/injection, schedule: Q01DX005 (ip), vehicle: saline with Tween-80
[8] = dose: 100.0 mg/kg/injection, schedule: Q04DX003 (ip), vehicle: saline
[9] = dose: 200.0 mg/kg/injection, schedule: Q04DX003 (ip), vehicle: saline
[10] = dose: 200.0 mg/kg/injection, schedule: Q01DX005 (ip), vehicle: Klucel (hydroxypropylcellulose) (HPC)
[11] = dose: 50.0 mg/kg/injection, schedule: Q01DX009 (ip), vehicle: Klucel (hydroxypropylcellulose) (HPC)
[12] = dose: 100.0 mg/kg/injection, schedule: Q01DX009 (ip), vehicle: Klucel (hydroxypropylcellulose) (HPC)

Measured: T/C

CC(C)(C)[Si](C)(C)O[C@H]1C[C@@H](O[Si](C)(C)C(C)(C)C)C=C1S(=O)(=O)c1ccccc1
inactive: [1] 101 % of control | dose: 25.0 mg/kg/injection, schedule: Q01DX005 (ip), vehicle: Klucel (hydroxypropylcellulose) (HPC) 107 % of control | [2] 111 % of control

COC(=O)C1CCC(/C(C#N)=C2/CCC(C(=O)OC)[N-]2)=N1.COC(=O)C1CCC(/C(C#N)=C2/CCC(C(=O)OC)[N-]2)=N1.[Cu+2] (stereo unspecified)
inactive: [3] 103 % of control | [4] 94 % of control

COc1cc(C(O)C(CO)Oc2c(OC)cc(C3OCC4C(c5cc(OC)c(O)c(OC)c5)OCC34)cc2OC)ccc1O (stereo unspecified)
inactive: dose: 5.0 mg/kg/injection, schedule: Q01DX005 (ip), vehicle: sodium bicarbonate 107 % of control | dose: 10.0 mg/kg/injection, schedule: Q01DX005 (ip), vehicle: sodium bicarbonate 109 % of control | dose: 20.0 mg/kg/injection, schedule: Q01DX005 (ip), vehicle: sodium bicarbonate 106 % of control | dose: 40.0 mg/kg/injection, schedule: Q01DX005 (ip), vehicle: sodium bicarbonate 100 % of control

CCCCN1C(=O)/C(=C/c2ccccc2OC)SC1=S
inactive: [2] 98 % of control | [5] 94 % of control

CCC1COC(CC)N1 (stereo unspecified)
inactive: [6] 113 % of control and 95 % of control | [7] 103 % of control

OCCN1CCC2(CC1)SSC1(CCN(CCO)CC1)S2
inactive: dose: 50.0 mg/kg/injection, schedule: Q04DX003 (ip), vehicle: saline 100 % of control | [8] 100 % of control | [9] 100 % of control

COC1(OC)C(c2ccc(Cl)cc2)C(C#N)(C#N)C1(OC)OC (stereo unspecified)
inactive: dose: 60.0 mg/kg/injection, schedule: Q01DX005 (ip), vehicle: Klucel (hydroxypropylcellulose) (HPC) 100 % of control | dose: 120.0 mg/kg/injection, schedule: Q01DX005 (ip), vehicle: Klucel (hydroxypropylcellulose) (HPC) 102 % of control | dose: 240.0 mg/kg/injection, schedule: Q01DX005 (ip), vehicle: Klucel (hydroxypropylcellulose) (HPC) 96 % of control

O=c1c2ccccc2sc2cccc(NCCCN3CCN(CCCNc4cccc5sc6ccccc6c(=O)c45)CC3)c12
inactive: dose: 0.5 mg/kg/injection, schedule: Q01DX005 (ip), vehicle: saline with Tween-80 100 % of control | dose: 1.0 mg/kg/injection, schedule: Q01DX005 (ip), vehicle: saline with Tween-80 99 % of control | dose: 2.0 mg/kg/injection, schedule: Q01DX005 (ip), vehicle: saline with Tween-80 99 % of control | dose: 4.0 mg/kg/injection, schedule: Q01DX005 (ip), vehicle: saline with Tween-80 95 % of control | dose: 8.0 mg/kg/injection, schedule: Q01DX005 (ip), vehicle: saline with Tween-80 88 % of control

COC1=CC(C)C2CC3OC(=O)CC4C(C)=C(OC)C(=O)C(C2(C)C1=O)C34C (stereo unspecified)
inactive: [2] 95 % of control | [5] 101 % of control | [10] 101 % of control

O=C1OC(=O)C2=C1CCC2
inactive: dose: 12.5 mg/kg/injection, schedule: Q01DX009 (ip), vehicle: distilled water + Tween-80 100 % of control | dose: 25.0 mg/kg/injection, schedule: Q01DX009 (ip), vehicle: distilled water + Tween-80 100 % of control | dose: 50.0 mg/kg/injection, schedule: Q01DX009 (ip), vehicle: distilled water + Tween-80 91 % of control

ClCCn1cnc2c(SCc3ccccc3Cl)ncnc21
inactive: dose: 25.0 mg/kg/injection, schedule: Q01DX009 (ip), vehicle: saline with Tween-80 100 % of control | dose: 50.0 mg/kg/injection, schedule: Q01DX009 (ip), vehicle: saline with Tween-80 90 % of control | dose: 100.0 mg/kg/injection, schedule: Q01DX009 (ip), vehicle: saline with Tween-80 90 % of control

CC(C)NC(=O)c1ccc(CBr)cc1
inactive: dose: 1.56 mg/kg/injection, schedule: Q01DX009 (ip), vehicle: other 95 % of control | dose: 3.13 mg/kg/injection, schedule: Q01DX009 (ip), vehicle: other 95 % of control | dose: 6.25 mg/kg/injection, schedule: Q01DX009 (ip), vehicle: other 98 % of control | dose: 12.5 mg/kg/injection, schedule: Q01DX009 (ip), vehicle: other 93 % of control | dose: 25.0 mg/kg/injection, schedule: Q01DX009 (ip), vehicle: other 112 % of control | dose: 50.0 mg/kg/injection, schedule: Q01DX009 (ip), vehicle: other 99 % of control

CC(=O)C(=Cc1ccc(C=C(C(C)=O)C(C)=O)cc1)C(C)=O
inactive: [3] 114 % of control | [4] 111 % of control

CCCCN1C(=O)C(=O)N(Cc2ccco2)C1=O
inactive: [11] 98 % of control | [12] 104 % of control | dose: 200.0 mg/kg/injection, schedule: Q01DX009 (ip), vehicle: Klucel (hydroxypropylcellulose) (HPC) 106 % of control

CCOC(=O)CCCCCNC(=S)N1c2c(nc(N)[nH]c2=O)NCC1CNc1ccc(C(=O)NC(CCC(=O)O)C(=O)O)cc1 (stereo unspecified)
inactive: dose: 100.0 mg/kg/injection, schedule: Q01DX001 (ip), vehicle: sodium bicarbonate 89 % of control | dose: 200.0 mg/kg/injection, schedule: Q01DX001 (ip), vehicle: sodium bicarbonate 90 % of control | dose: 400.0 mg/kg/injection, schedule: Q01DX001 (ip), vehicle: sodium bicarbonate 92 % of control

c1nc(N2CCCCC2)c2c3c(sc2n1)CCCC3
inactive: [6] 100 % of control | [7] 91 % of control | dose: 200.0 mg/kg/injection, schedule: Q01DX005 (ip), vehicle: saline with Tween-80 96 % of control

O=C1C2CCCC1C(c1ccc(Cl)cc1)NC2c1ccc(Cl)cc1 (stereo unspecified)
inactive: [8] 103 % of control | [9] 103 % of control | dose: 400.0 mg/kg/injection, schedule: Q04DX003 (ip), vehicle: saline 96 % of control

C/C=C/C=C1/OC(C)=C(C(=O)OCC)C1=O
inactive: dose: 6.25 mg/kg/injection, schedule: Q01DX009 (ip), vehicle: Klucel (hydroxypropylcellulose) (HPC) 107 % of control | dose: 12.5 mg/kg/injection, schedule: Q01DX009 (ip), vehicle: Klucel (hydroxypropylcellulose) (HPC) 111 % of control | [11] 123 % of control

N#CC1=C2CCCCC2(O)NC1=O (stereo unspecified)
inactive: dose: 6.25 mg/kg/injection, schedule: Q01DX005 (ip), vehicle: Klucel (hydroxypropylcellulose) (HPC) 108 % of control | [1] 115 % of control

CC1CC=CC(=O)CC1 (stereo unspecified)
inactive: [11] 112 % of control | [12] 117 % of control

O=C1C(c2ccccc2)=c2c(c3ccccc3c3ccccc23)=C1c1ccccc1
inactive: [2] 99 % of control | dose: 50.0 mg/kg/injection, schedule: Q01DX005 (ip), vehicle: Klucel + Tween-80 89 % of control and 95 % of control | [5] 98 % of control | dose: 100.0 mg/kg/injection, schedule: Q01DX005 (ip), vehicle: Klucel + Tween-80 89 % of control and 104 % of control | [10] 95 % of control | dose: 200.0 mg/kg/injection, schedule: Q01DX005 (ip), vehicle: Klucel + Tween-80 106 % of control
